Where a SMILES comes first, the peptide text is derived from it.
Legend:
NAALADase = NAALADase with NAAG as substrate; cited from earlier work
PSMA = PSMA (Homo sapiens, UniProt Q04609); assay: 3H-NAAG assay of PSMA enzymatic activity; type: biochemical
Excerpt: To determine the effects of several PSMA ligands and modified PSMA ligands (β-AG/78) on PSMA activity, ^3H-NAAG assay (Slusher et al., J. Biol. Chem., 1990, 265: 21297-301) was used to measure the activity of PSMA at the presence or absence of several PSMA ligands.
β-AG/78 (FIG. 5, bottom panel) is a conjugate of β-AG and the near-infrared fluorophore IRDye78. The conjugate can be synthesized using a similar scheme as shown in Example 1, and the product can be purified using either TLC (not shown) or HPLC, as shown in FIG. 6. As a control, IRDye78 was also tested. The results were shown as percentage of remaining PSMA activity as compared to PSMA activity without any additives, over a range of inhibitor concentrations.

PSMA, sequence (Q04609 whole entry): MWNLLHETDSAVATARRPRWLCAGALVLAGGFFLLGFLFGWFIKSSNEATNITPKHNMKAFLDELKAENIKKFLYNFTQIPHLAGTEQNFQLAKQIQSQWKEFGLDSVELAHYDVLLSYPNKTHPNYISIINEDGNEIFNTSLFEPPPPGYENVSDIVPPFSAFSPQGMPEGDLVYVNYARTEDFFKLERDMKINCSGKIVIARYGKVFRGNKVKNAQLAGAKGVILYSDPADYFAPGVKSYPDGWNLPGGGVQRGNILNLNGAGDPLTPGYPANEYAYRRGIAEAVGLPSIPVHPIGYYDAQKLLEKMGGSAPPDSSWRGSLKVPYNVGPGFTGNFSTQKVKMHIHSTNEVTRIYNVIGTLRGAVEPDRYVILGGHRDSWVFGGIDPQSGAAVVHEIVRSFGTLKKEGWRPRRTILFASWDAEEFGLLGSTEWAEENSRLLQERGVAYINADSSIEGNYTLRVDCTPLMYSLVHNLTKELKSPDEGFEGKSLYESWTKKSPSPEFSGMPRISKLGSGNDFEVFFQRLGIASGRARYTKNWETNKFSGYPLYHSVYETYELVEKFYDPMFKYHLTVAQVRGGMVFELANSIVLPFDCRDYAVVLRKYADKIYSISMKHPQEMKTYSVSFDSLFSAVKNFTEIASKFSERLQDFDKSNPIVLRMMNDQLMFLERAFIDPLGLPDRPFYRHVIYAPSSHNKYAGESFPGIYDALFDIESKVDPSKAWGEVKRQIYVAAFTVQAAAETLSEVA

SMILES	Km (NAALADase)	inhibitory potency relative to comparator (PSMA; comparison of inhibition curves)	inhibition of PSMA enzymatic activity (PSMA; percentage of remaining PSMA activity over a range of inhibitor concentrations)
CC(=O)N[C@@H](CC(=O)O)C(=O)N[C@@H](CCC(=O)O)C(=O)O [NAAG, N-acetyl-aspartyl-glutamate] (Ac-Asp-Glu-OH)	0.54 µM	–	–
N[C@@H](CC(=O)N[C@@H](CCC(=O)O)C(=O)O)C(=O)O [β-AG, β-Asp-Glu]	–	slightly less potent than that of beta-N-acetyl-AG (β-NAAG)	is indeed an inhibitor of PSMA enzymatic activity

— US6875886B2, “Modified PSMA ligands and uses related thereto” (Beth Israel Deaconess Medical Center, Inc., priority 2001, dated 2005)
